Holding throughout (assay type): cell-based
One test relates to Escherichia coli (TolC). As to the kind of experiment: MIC determination. The following applies: read-out: MIC50 Escherichia coli (TolC). The procedure: (§1) MIC determination: Indicator strains were obtained from the German Collection of Microorganisms and Cell Cultures (Deutsche Sammlung für Mikroorganismen und Zellkulturen, DSMZ) or were part of our internal strain collection. All microorganisms were handled under standard conditions recommended by the depositor. Overnight […]
(§2) cultures of bacteria were prepared in EBS medium (0.5% casein peptone, 0.5% proteose peptone, 0.1% meat peptone, 0.1% yeast extract; pH 7.0). Yeasts and molds were grown in Myc medium (1% phytone peptone, 1% glucose, 50 mM
(§3) HEPES, pH 7.0). The overnight cultures of microorganisms were diluted to OD600 0.01 (bacteria) or 0.05 (yeasts/molds) in the respective growth medium. Serial dilutions of compounds were prepared as duplicates in sterile 96-well plates. The cell suspension was added and microorganisms were grown overnight on a microplate shaker (900 rpm, 30 °C or 37 °C). Growth inhibition was assessed by measuring the OD600 on a plate reader (POLARstar, BMG Labtech). MIC50 values were determined as averages relative to respective control samples by sigmoidal curve fitting. […]

The subject of the next test is Micrococcus luteus. Nature of the test: MIC determination. The conditions noted are these: duplicate, mean ±SD. The procedure:
as §1, §2, §3

Test [1] relates to Staphylococcus aureus DSM11822 (MRSA). Nature of the test: MIC determination. The conditions noted are these: duplicate, mean ±SD. Here is the method: as §1, §2, §3
The test system of another test is Bacillus subtilis DSM10. Nature of the test: MIC determination. The following applies: duplicate, mean ±SD; for MIC50: Bacillus subtilis, DSM10. The procedure:
as §1, §2, §3

The test system of test [2] is Escherichia coli DH5α (wt). Nature of the test: MIC determination. The conditions noted are these: duplicate, mean ±SD. The procedure:
as §1, §2, §3

Test [3] has as its system Klebsiella pneumoniae DSM30104. Nature of the test: MIC determination. The following applies: duplicate, mean ±SD. Here is the method:
as §1, §2, §3

Test [4] has as its system Staphylococcus aureus Newman (MSSA). Nature of the test: MIC determination. The following applies: duplicate, mean ±SD. The procedure:
as §1, §2, §3

The subject of test [5] is Trypanosoma brucei gambiense strain Feo bloodstream forms. Nature of the test: Antitrypanosomal assay (resazurin). The following applies: for IC50: Trypanosoma brucei, GAMBIENSE, 72 h incubation, read-out: IC50 T. brucei gambiense. Here is the method:
page 10: independent experiments. Chloroquine diphosphate (Sigma–Aldrich) was used as antimalarial drug control. Antitrypanosomal activities: Bloodstream forms of Trypanosoma brucei gambiense strain Feo were cultured in HMI9 medium supplemented with 10% FCS at 37 °C under an atmosphere of 5% CO2. Antitrypanosomal assays were performed as previously described. In all experiments, log-phage cell cultures were harvested by centrifugation at 3,000g and immediately used. Drug assays were based on the conversion of a redox-sensitive dye (resazurin) to a fluorescent product by viable cells. Drug stock solutions were prepared in pure DMSO. […] After a 72 h incubation, resazurin solution was added in each well at the final concentration of 45 µM. Fluorescence was measured at 530 nm excitation and 590 nm emission wavelengths after a further 4 h incubation. Each inhibitor concentration was tested in triplicate. The percentage of inhibition of parasite growth rate was calculated by comparing the fluorescence of parasites maintained in the presence of drug to that in the absence of drug. DMSO was used as a control. IC50s were determined from the dose–response curves with drug concentrations ranging from 100 µM to 50 nM. Pentamidine was used as antitrypanosomal drug control. MIC determination: Indicator strains were obtained from the German Collection of Microorganisms and Cell Cultures (Deutsche Sammlung für Mikroorganismen und Zellkulturen, DSMZ) or were part of our internal strain collection. All microorganisms were handled under standard conditions recommended by the depositor. Overnight S10
(The colour change of resazurin is a common sign of viable cells or microbes.)

Values after ≈ are worked out from the molar mass of the structure shown. A value given as a limit tells only on which side of the number the result lay.

As usually defined, the MIC50 is the lowest concentration that inhibits either 50% of growth or 50% of the strains tested, depending on the study. By IC50 is commonly meant the concentration that gives 50% inhibition.

Take `CC(C)=CCC/C(C)=C/Cc1c(C)[nH]c2ccccc2c1=O` [compound 9]: the MIC50 in the test on Escherichia coli (TolC) is 1.41 ± 0.45 µg/mL (≈ 4.77 µM); in the test with Micrococcus luteus, 2.59 ± 0.34 µg/mL (≈ 8.77 µM); in test [1], 4.5 ± 0.74 µg/mL (≈ 15.2 µM); against Bacillus subtilis DSM10, less than 0.1 µg/mL; in test [2] it was more than 64 µg/mL; in test [3] it was more than 64 µg/mL. Further, the MIC50 in test [4] stood at 3.96 ± 0.49 µg/mL (≈ 13.4 µM). Besides, the IC50 in test [5] was found to be 1.5 µg/mL (≈ 5.08 µM).

`CC(C)=CCC/C(C)=C/CC/C(C)=C/Cc1c(C)[nH]c2ccccc2c1=O` [compound 4, aurachin D]: the MIC50 in the test with Escherichia coli (TolC) was 8.36 ± 1 µg/mL (≈ 23 µM); against Micrococcus luteus, 1.47 ± 0.12 µg/mL (≈ 4.04 µM); in test [1], 2.1 ± 0.19 µg/mL (≈ 5.78 µM); against Bacillus subtilis DSM10 it was less than 0.1 µg/mL; in test [2], more than 64 µg/mL; in test [3], more than 64 µg/mL. This molecule also came in with an MIC50 in test [4] of 5.46 ± 1.05 µg/mL (≈ 15 µM). For the same molecule, the 50% inhibitory concentration (IC50) in test [5] was 0.4 µg/mL (≈ 1.1 µM). In test [5] (Vero cytotoxic concentration / concentration active on T. brucei gambiense), this molecule came in with an antitrypanosomal selectivity index of 35.

With `COc1ccc2[nH]c(C)c(CC=C(C)CCC=C(C)CCC=C(C)C)c(=O)c2c1` [compound 18], the MIC50 in the test with Escherichia coli (TolC) is more than 64 µg/mL; in the test on Micrococcus luteus it was 49.2 ± 3.94 µg/mL (≈ 125 µM); in test [1], more than 64 µg/mL; in the test on Bacillus subtilis DSM10, 6.75 ± 0.6 µg/mL (≈ 17.2 µM); in test [2], more than 64 µg/mL; in test [3] it was more than 64 µg/mL. The MIC50 in test [4] was more than 64 µg/mL. The “MIC50 Bacillus subtilis DSM10” value with Bacillus subtilis DSM10 is listed as “significant growth inhibitory effect”. Moreover, the IC50 in test [5] came out at 1.6 µg/mL (≈ 4.07 µM).

Consider `CC(C)=CCCC(C)=CCCC(C)=CCc1c(C)[nH]c2cc3c(cc2c1=O)OCO3` [compound 19], for which the MIC50 was more than 64 µg/mL in the test on Escherichia coli (TolC); more than 64 µg/mL against Micrococcus luteus; more than 64 µg/mL in test [1]; 4.66 ± 0.5 µg/mL (≈ 11.4 µM) against Bacillus subtilis DSM10; more than 64 µg/mL in test [2]; more than 64 µg/mL in test [3]. The molecule also registered an MIC50 in test [4] of 34.6 ± 5.13 µg/mL (≈ 84.8 µM). The “MIC50 Bacillus subtilis DSM10” value against Bacillus subtilis DSM10 is reported as “significant growth inhibitory effect”. Also, in test [5], the IC50 was more than 10 µg/mL.

Consider `CC(C)=CCCC(C)=CCCC(C)=CCc1c(C)[nH]c2ccc3ccccc3c2c1=O` [compound 17], for which the MIC50 (in the test on Escherichia coli (TolC); with Micrococcus luteus; in test [1]; in the test with Bacillus subtilis DSM10; in test [2]; in test [3]) was more than 64 µg/mL in each case. This molecule returned an MIC50 in test [4] of more than 64 µg/mL. Also, the IC50 in test [5] amounted to 0.8 µg/mL (≈ 1.93 µM).

For the origin of these results see article PMC3740496, “Synthesis and biological activities of the respiratory chain inhibitor aurachin D and new ring versus chain analogues” (Beilstein Journal of Organic Chemistry, 2013).
